Data from ChEMBL document CHEMBL1201862, “PubChem BioAssay data set” (2004).
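Where inhibition never reached the appropriate level, the endpoint shown equals the highest concentration tested. Otherwise, values were interpolated linearly from a five-concentration, 48-hour dose response in 96-well plates. GI50 marks 50% less growth.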 Activity calls are given as the source filed them. No stated cut-off is given here; in the data, active = GI50 up to about 1.1 µM and inactive = higher.

How the values were obtained:
Assay in all cases: DTP human tumour cell line panel, 48 h
[1] = system: MDA-MB-435
[2] = system: NCI/ADR-RES
[3] = system: SK-OV-3
[4] = system: SF-295
[5] = system: 786-0
[6] = system: HOP-62
[7] = system: ACHN
[8] = system: SK-MEL-2
[9] = system: OVCAR-3
[10] = system: K562
[11] = system: MCF7
[12] = system: MDA-N
[13] = system: OVCAR-4
[14] = system: KM12
[15] = system: OVCAR-5
[16] = system: BT-549
[17] = system: HT-29
[18] = system: SK-MEL-28
[19] = system: SNB-19
[20] = system: NCI-H460

Measured: GI50

CSc1nc(NC2OCC(OC(C)=O)C(OC(C)=O)C2OC(C)=O)c(/N=C\C=N\c2c(NC3OCC(OC(C)=O)C(OC(C)=O)C3OC(C)=O)nc(SC)[nH]c2=O)c(=O)[nH]1 (stereo not given)
inactive: [1] > 100 µM | [2] 34.3 µM | [3] 28.9 µM | [4] > 66.8 µM | [5] 30.1 µM | [6] 30.5 µM | [7] > 67.8 µM | [8] > 100 µM | [9] > 100 µM | [10] > 100 µM | [11] 46.5 µM | [12] > 100 µM | [13] > 100 µM | [14] > 100 µM | [15] > 71.8 µM | [16] 55.2 µM | [17] > 100 µM | [18] > 100 µM | [19] 46.3 µM | [20] > 100 µM
